In US20250257061A1, “COMPOSITIONS AND METHODS FOR TREATING CANCER AND REDUCING WNT MEDIATED EFFECTS” (StemSynergy Therapeutics, Inc., priority 2024, published 2025) one finds IC50 data, which are given here for 23 compounds.

Where two headings read alike, the source gives them in different places.

The test system of test [1] is Wnt-dependent HCT116 cell line. Nature of the test: Viability assay using Wnt-dependent HCT116 cell line (Cell Titer Glo). Particulars: HCT116 cells, read-out: Viability IC50 category. It is filed as cell-based. As for the experimental part: All compounds were tested using the human cell line HEK STF293. This cell line carries a Wnt reporter (TCF/LEF1 promoter), which drives expression of the firefly luciferase protein. The level of Wnt activity is directly correlated with the level of luciferase activity (determined using a simple assay). Compounds that inhibit Wnt signaling by reducing luciferase activity in these two cell lines are further tested biochemically. […] Compounds were further tested in a Viability assay using Wnt-dependent HCT116 cell line. HEK293 cells were seeded in a 6-well plate at approximately 8.0×10^5 cells (2 mL per well). On the first day, Wnt3a-conditioned media (1:1) and compounds (1:100) were added to the plated cells. The final concentrations of compounds were 1 μM, 500 nM, and 100 nM. Vehicle (DMSO) and a Wnt3a-conditioned media plus Vehicle samples were also prepared as controls. Lysates were collected (with non-denaturing lysis buffer) after 24 hours incubation, and protein concentrations determined by Bradford Assay. Immunoblotting with an anti-beta-catenin antibody (equivalent amounts of protein/lane for each condition) were subsequently performed to determine beta-catenin levels. HCT116 cells were seeded at 2,500 cells/well in a 96-well dish (Volume: 100 μL/well). On the second day, the 10 mM stock solution of each test compound was thawed at room temperature. Dilutions of the test compound were prepared in DMSO in a V-bottom 96-well plate. The stock compound solution, DMSO-diluted compound solutions, and DMSO were further diluted 500-fold in cell culture media, and 100 μL of the compound- or DMSO-containing cell culture media was added to each well of the cells. […] The final DMSO concentration was 0.1% in all wells. On the fifth day, 150 μL of media was removed from each well. 50 μL/well Cell Titer Glo reagent (Promega) was added to each well. The plate was shaken at 130 rpm for 15 minutes at room temperature, and the cell viability was determined using a luminescence plate reader. All compounds were tested using the human cell line HEK STF293. This cell line carries a Wnt reporter (TCF/LEF1 promoter), which drives expression of the firefly luciferase protein. The level of Wnt activity is directly correlated with the level of luciferase activity (determined using a simple assay). Compounds that inhibit Wnt signaling by reducing luciferase activity in these two cell lines are further tested biochemically. […] Compounds were further tested in a Viability assay using Wnt-dependent HCT116 cell line. HEK293 cells were seeded in a 6-well plate at approximately 8.0×10^5 cells (2 mL per well). On the first day, Wnt3a-conditioned media (1:1) and compounds (1:100) were added to the plated cells. The final concentrations of compounds were 1 μM, 500 nM, and 100 nM. Vehicle (DMSO) and a Wnt3a-conditioned media plus Vehicle samples were also prepared as controls. Lysates were collected (with non-denaturing lysis buffer) after 24 hours incubation, and protein concentrations determined by Bradford Assay. Immunoblotting with an anti-beta-catenin antibody (equivalent amounts of protein/lane for each condition) were subsequently performed to determine beta-catenin levels. HCT116 cells were seeded at 2,500 cells/well in a 96-well dish (Volume: 100 μL/well). On the second day, the 10 mM stock solution of each test compound was thawed at room temperature. Dilutions of the test compound were prepared in DMSO in a V-bottom 96-well plate. The stock compound solution, DMSO-diluted compound solutions, and DMSO were further diluted 500-fold in cell culture media, and 100 μL of the compound- or DMSO-containing cell culture media was added to each well of the cells. […] The final DMSO concentration was 0.1% in all wells. On the fifth day, 150 μL of media was removed from each well. 50 μL/well Cell Titer Glo reagent (Promega) was added to each well. The plate was shaken at 130 rpm for 15 minutes at room temperature, and the cell viability was determined using a luminescence plate reader. […]

The subject of test [2] is Wnt reporter (TCF/LEF1 promoter). Nature of the test: HEK STF293 Wnt reporter (TOPFlash) luciferase assay, Steady Glo normalised to Cell Titer. Type of test: cell-based, human. To be noted: HEK STF293 cells, Wnt3a-conditioned media, read-out: TOPFlash IC50 category. The procedure: All compounds were tested using the human cell line HEK STF293. This cell line carries a Wnt reporter (TCF/LEF1 promoter), which drives expression of the firefly luciferase protein. The level of Wnt activity is directly correlated with the level of luciferase activity (determined using a simple assay). Compounds that inhibit Wnt signaling by reducing luciferase activity in these two cell lines are further tested biochemically. […] Compounds were further tested in a Viability assay using Wnt-dependent HCT116 cell line. Compounds were prepared as 10 mM stocks for each compound in DMSO. Dilutions were prepared in a 96-well plate in DMSO. The stock dilutions are as follows: 10 mM, 1 mM, 100 μM, 10 μM, 100 nM, and 10 nM. Plates were sealed and stored at −20° C. […] On the first day, Wnt3a-conditioned media (1:1) were added along with diluted compounds (1:100). […] The final concentrations should therefore be 100 μM, 10 μM, 1 μM, 100 nM, 10 nM, and 1 nM. On the second day, the media was removed and 75 μL of Passive Lysis Buffer (Promega) is added to each well. The plate was shaken at 130 rpm for 15 minutes. For the Steady Glo assay, 45 μL of the lysis was removed and added to a white 96-well plate containing 45 μL/well of Steady Glo solution (Promega). For the Cell Titer assay, 25 μL of the lysis was transferred to a white 96-well plate containing 25 μL/well of Cell Titer solution (Promega). Both Steady Glo and Cell Titer assays were read with a luminescence plate reader. When determining EC50, the Steady Glo values were divided by the Cell Titer values to normalize for cell number. All compounds were tested using the human cell line HEK STF293. This cell line carries a Wnt reporter (TCF/LEF1 promoter), which drives expression of the firefly luciferase protein. The level of Wnt activity is directly correlated with the level of luciferase activity (determined using a simple assay). Compounds that inhibit Wnt signaling by reducing luciferase activity in these two cell lines are further tested biochemically. […] Compounds were further tested in a Viability assay using Wnt-dependent HCT116 cell line. Compounds were prepared as 10 mM stocks for each compound in DMSO. Dilutions were prepared in a 96-well plate in DMSO. The stock dilutions are as follows: 10 mM, 1 mM, 100 μM, 10 μM, 100 nM, and 10 nM. Plates were sealed and stored at −20° C. […] On the first day, Wnt3a-conditioned media (1:1) were added along with diluted compounds (1:100). […] The final concentrations should therefore be 100 μM, 10 μM, 1 μM, 100 nM, 10 nM, and 1 nM. On the second day, the media was removed and 75 μL of Passive Lysis Buffer (Promega) is added to each well. The plate was shaken at 130 rpm for 15 minutes. For the Steady Glo assay, 45 μL of the lysis was removed and added to a white 96-well plate containing 45 μL/well of Steady Glo solution (Promega). For the Cell Titer assay, 25 μL of the lysis was transferred to a white 96-well plate containing 25 μL/well of Cell Titer solution (Promega). Both Steady Glo and Cell Titer assays were read with a luminescence plate reader. When determining EC50, the Steady Glo values were divided by the Cell Titer values to normalize for cell number. All compounds were tested using the human cell line HEK STF293. This cell line carries a Wnt reporter (TCF/LEF1 promoter), which drives expression of the firefly luciferase protein. The level of Wnt activity is directly correlated with the level of luciferase activity (determined using a simple assay). Compounds that inhibit Wnt signaling by reducing luciferase activity in these two cell lines are further tested biochemically. […] Compounds were further tested in a Viability assay using Wnt-dependent HCT116 cell line. Compounds were prepared as 10 mM stocks for each compound in DMSO. Dilutions were prepared in a 96-well plate in DMSO. The stock dilutions are as follows: 10 mM, 1 mM, 100 μM, 10 μM, 100 nM, and 10 nM. Plates were sealed and stored at −20° C. […]

Setting [3] is: Homo sapiens, HCT-116, Examples for Formulae (IV), (V), (VI), and (VII).
Setting [4] is: Homo sapiens, STF/293, Examples for Formulae (IV), (V), (VI), and (VII).
The mark [5] stands for this setting: Homo sapiens, HCT-116, Examples for Formulae (VIII), (IX), and (X).
[6] abbreviates: Homo sapiens, STF/293, Examples for Formulae (VIII), (IX), and (X).
Setting [7] is: Examples for Formulae (IV), (V), (VI), and (VII).
[8] abbreviates: Homo sapiens, HCT-116, Examples for Formulae (I), (II), and (III).
Setting [9] is: Homo sapiens, STF/293, Examples for Formulae (I), (II), and (III).

For the compound `O=C(Nc1nc(-c2ccccn2)cs1)c1ocnc1-c1ccc(C(=O)N2CCOCC2)cc1` [Example 42], the half-maximal inhibitory concentration (IC50) in test [1] (setting [3]) and in test [2] (setting [4]) was 0.5 to 1 µM each time.

Take `O=C(Nc1nc(-c2ccccn2)cs1)c1ccc(=O)n(Cc2ccc(F)cc2)c1` [Example 4]: the half-maximal inhibitory concentration (IC50) in test [1] (setting [5]) and in test [2] (setting [6]) was 0.5 to 1 µM throughout.

In the case of `CS(=O)(=O)c1ccccc1-c1ncoc1C(=O)Nc1nc(-c2ccccn2)cs1` [Example 44], the IC50 was in the range of 0.5 to 1 µM in test [1] (setting [7]) and 1 to 10 µM in test [2] (setting [7]).

`O=C(Nc1nc(-c2ccccn2)cs1)c1cccnc1-c1ccc(F)cc1` [Example 12]: the IC50 in test [1] (setting [5]) was 0.5 to 1 µM; in test [2] (setting [6]), 0.2 to 0.5 µM.

With `Cc1onc(-c2cccc(F)c2)c1C(=O)Nc1nc(-c2ccccn2)cs1` [Example 5], the concentration for half-maximal inhibition (IC50) in test [1] (setting [3]) and in test [2] (setting [4]) was 0.2 to 0.5 µM in each case.

`O=C(Nc1nc(-c2ccccn2)cs1)c1cc(Cl)c(=O)n(Cc2ccc(C(F)(F)F)cc2)c1` [Example 8]: the IC50 in test [1] (setting [5]) fell in the range of 0.2 to 0.5 µM; in test [2] (setting [6]) it was 0.5 to 1 µM.

Consider `Cc1nn(Cc2ccc(F)cc2)c(C)c1C(=O)Nc1nc(-c2ccccn2)cs1` [Example 7], for which the half-maximal inhibitory concentration (IC50) in test [1] (setting [8]) and in test [2] (setting [9]) was 0.5 to 1 µM each time.

As for `CN(C(=O)c1ccccc1F)c1ncc(C(=O)Nc2nc(-c3ccccn3)cs2)o1` [Example 36], the IC50 in test [1] (setting [3]) lay in the range of 0.5 to 1 µM; in test [2] (setting [4]), 0.2 to 0.5 µM.

`CN(c1nc(C(F)(F)F)c(C(=O)Nc2nc(-c3ccccn3)cs2)o1)S(=O)(=O)c1ccc(Cl)cc1` [Example 53]: the IC50 in test [1] (setting [7]) and in test [2] (setting [7]) was 0.5 to 1 µM each time.

For `Cn1cc(C(=O)Nc2nc(-c3ccccn3)cs2)c(-c2ccccc2Cl)n1` [Example 2], the IC50 in test [1] (setting [8]) fell in the range of 0.5 to 1 µM; in test [2] (setting [9]), 1 to 10 µM.

Take `Cc1cc(C(=O)Nc2nc(-c3ncccc3C)co2)n(-c2ccc(S(C)(=O)=O)cc2)n1` [Example 19]: the 50% inhibitory concentration (IC50) in test [1] (setting [5]) is 0.2 to 0.5 µM; in test [2] (setting [6]), under 0.2 µM.

Consider `Cc1nnc(-c2ccc(-c3nc(C)oc3C(=O)Nc3nc(-c4ccccn4)cs3)cc2)o1` [Example 65], for which the half-inhibitory concentration (IC50) in test [1] (setting [7]) and in test [2] (setting [7]) was under 0.2 µM each time.

Regarding `Cc1onc(-c2ccc(OC(F)(F)F)cc2)c1C(=O)Nc1nc(-c2ccccn2)cs1` [Example 26], the concentration for half-maximal inhibition (IC50) in test [1] (setting [3]) is under 0.2 µM; in test [2] (setting [4]), 0.2 to 0.5 µM.

With `Cc1onc(-c2ccc(C(F)(F)F)c(Cl)c2)c1C(=O)Nc1nc(-c2ccccn2)cs1` [Example 63], the IC50 in test [1] (setting [3]) and in test [2] (setting [4]) was 0.2 to 0.5 µM in each case.

`O=C(Nc1nc(-c2ccccn2)cs1)c1cnnn1-c1cccc(F)c1` [Example 18]: the half-maximal inhibitory concentration (IC50) in test [1] (setting [8]) and in test [2] (setting [9]) was 0.2 to 0.5 µM in each case.

Take `CN(c1nc(C(F)(F)F)c(C(=O)Nc2nc(-c3ccccn3)cs2)o1)S(=O)(=O)c1ccc(F)cc1` [Example 54]: the 50% inhibitory concentration (IC50) in test [1] (setting [3]) and in test [2] (setting [4]) was 1 to 10 µM each time.

Turning to `Cc1onc(-c2ccc(C(F)(F)F)c(F)c2)c1C(=O)Nc1nc(-c2ccccn2)cs1` [Example 62], the IC50 is under 0.2 µM in test [1] (setting [7]) and 0.2 to 0.5 µM in test [2] (setting [7]).

For the compound `Cc1onc(-c2ccccc2F)c1C(=O)Nc1nc(-c2ccccn2)cs1` [Example 7], the IC50 in test [1] (setting [3]) and in test [2] (setting [4]) was 0.2 to 0.5 µM in each case.

For `CN(c1nc(C(F)(F)F)c(C(=O)Nc2nc(-c3ccccn3)cs2)o1)S(=O)(=O)c1ccccc1Cl` [Example 56], the IC50 in test [1] (setting [7]) and in test [2] (setting [7]) was 0.5 to 1 µM in each case.

For the compound `Cc1onc(-c2cccs2)c1C(=O)Nc1nc(-c2ccccn2)cs1` [Example 1], the IC50 in test [1] (setting [3]) is 0.2 to 0.5 µM; in test [2] (setting [4]) it was under 0.2 µM.

With `O=C(Nc1nc(-c2ccccn2)cs1)c1oc(CN2CCOCC2)nc1-c1ccc(F)cc1` [Example 72], the half-inhibitory concentration (IC50) in test [1] (setting [3]) and in test [2] (setting [4]) was 0.2 to 0.5 µM throughout.

As for `O=C(Nc1nc(-c2ccccn2)cs1)c1ocnc1-c1ccc(F)cc1F` [Example 12], the IC50 in test [1] (setting [3]) and in test [2] (setting [4]) was 0.2 to 0.5 µM in each case.

As to `Cc1nn(Cc2ccc(F)cc2)c(Cl)c1C(=O)Nc1nc(-c2ccccn2)cs1` [Example 9], the IC50 in test [1] (setting [8]) and in test [2] (setting [9]) was 0.5 to 1 µM throughout.
